Assay results: US20220259265A1, “Inhibitors and Use Thereof in Cancer Treatment” (The University of Sydney, priority 2019, published 2022)
Ends that are not written are not given here. Peptide text beside a SMILES is read from it. * marks the point of attachment. 5TAMRA = CN(C)c1ccc2c(c1)Oc1cc(N(C)C)ccc1C21OC(=O)c2cc(C(=O)*)ccc21

Assays:
[1] = tested on: IGFBP-3-NONO complexes in HCC1806 cells; assay: Proximity ligation assay (PLA), HCC1806 cells; format: cell-based, human
Experimental: (§1) PLA was performed using the Duolink Detection Kit (Olink Bioscience Uppsala, Sweden) as previously described (Lin M Z et al., Oncogene, 2014, 33, 85-96). Briefly, cells were grown on 8-mm glass coverslips to 50% confluency, treated, and prepared for microscopy by fixing, permeabilizing and blocking. Coverslips were incubated with primary antibody pairs (raised in different species) targeting the proteins under investigation overnight at 4° C. […]; NONO (as above) and […]; IGFBP-3 (as above), 1:100. This was followed by incubation with PLA probes MINUS and PLUS for 1 h at 37° C., probe ligation for 30 min at 37° C. and amplification over 100 min at 37° C. Interactions were detected as amplified far-red signals using a Leica TCS SP5 confocal microscope (Leica Microsystems, Wetzlar, Germany) and quantitated using Image J software.

[2] = tested on: DNA end-joining activity in MDA-MB-468 cells; assay: DNA end-joining assay, nuclear extracts of treated MDA-MB-468 cells; format: cell-based, human
Experimental: (§2) Nuclear extraction and end-joining assay was performed as previously described (Andrin C et al., J Blot Chem., 2004, 279, 25017-25023; Andrin C et al., Nucleus., 2012, 3, 384-395) with slight modifications. […] After isolation of nuclei by centrifugation through a buffer containing 300 mM sucrose, the washed nuclear pellet was extracted into high-salt buffer (20 mM Hepes, pH 7.5, 25% glycerol, 420 mM NaCl, 0.2 mM EDTA, 1.5 mM MgCl2) for 30 min on ice, and insoluble material was removed by centrifugation. The soluble nuclear extract was used in the end-joining assay. Restriction enzymes NheI and EcoRI (New England Biolabs, Ipswich, Mass., USA) were used to digest a EGFP-C1 plasmid (Clontech, Mountain View, Calif., USA) to generate a DNA fragment of 4 kb with non-homologous ends. The linearized plasmid was separated by 0.8% agarose gel electrophoresis, purified using a DNA gel extraction kit (Qiagen), and used as the substrate for end-joining assays. Nuclear extract (2 μg) was mixed with end-joining assay buffer (7.5 mM Tris pH 8.0, 0.2 mM CaCl2, 10 mM MgCl2, 50 mM KCl, 1.2 mM ATP and 0.5 mM DTT) and allowed to stand for 30 min at 22° C. Repair was initiated by adding 100 ng of prepared linearized DNA and incubated at 25° C. for 30 min, stopped by the addition of 0.5 M EDTA, 0.5% SDS and 10 mg/mL Proteinase K. DNA bands were separated on a 0.7% agarose gel, stained with SYBR Gold (Life Technologies), and visualized on a BioRad ChemiDoc imaging system.

[3] = tested on: IGFBP-3-NONO complexes in MDA-MB-468 cells; assay: Proximity ligation assay (PLA), MDA-MB-468 cells; format: cell-based, human
Experimental: as §1

[4] = tested on: γH2AX (DNA double-strand breaks) in MDA-MB-468 cells; assay: γH2AX immunofluorescence, MDA-MB-468 cells; format: cell-based, human; details: olaparib 10 μM or veliparib 20 μM pre-treatment, etoposide 1 h (T0), 4 h recovery (T4)
Experimental: (§3) The human basal-like triple negative breast cancer (TNBC) cell lines MDA-MB-468 and HCC1806 were obtained from ATCC, Manassas, Va. and maintained in RPMI 1640 medium containing 5% FBS and 10 μg/mL bovine insulin under standard conditions. Cryopreserved stocks were established within 1 month of receipt, and fresh cultures for use in experiments were established from these stocks every 2 to 3 months.
(§4) Cells grown on 8-mm glass coverslips were washed three times with PBS, fixed with 4% paraformaldehyde for 15 min, permeabilized with 0.2% Triton X-100 for 5 min and blocked with 2% BSA for 1 h. Cells were then incubated with rabbit anti-phospho-histone γH2A.X (Ser139) (1:200; Cell Signaling Technology, #9718) overnight at 4° C., washed, and further incubated with anti-rabbit secondary antibody, tagged with Alexa Fluor 594 (Life Technologies, Carlsbad, Calif., USA). For controls, cells were treated with isotype-matched IgG from the same species. Slides were mounted using ProLong Gold Antifade Reagent (Life Technologies). […] Data were calculated from three replicate experiments.

[5] = tested on: γH2AX (DNA double-strand breaks) in HCC1806 cells; assay: γH2AX immunofluorescence, HCC1806 cells; format: cell-based, human; details: olaparib 10 μM or veliparib 20 μM pre-treatment, etoposide 1 h (T0), 4 h recovery (T4)
Experimental: as §3, §4

[6] = tested on: DNA end-joining activity in HCC1806 cells; assay: DNA end-joining assay, nuclear extracts of treated HCC1806 cells; format: cell-based, human
Experimental: as §2, with “Repair was initiated by adding 100 ng of prepared linearized DNA and incubated at 25° C. for 30 min, stopped by the addition of 0.5 M EDTA, 0.5% SDS and 10 mg/mL Proteinase K. DNA bands were separated on a 0.7% agarose gel, stained with SYBR Gold (Life Technologies), and visualized on a BioRad ChemiDoc imaging system.” left out

[7] = tested on: HCC1806 breast cancer cells; assay: Nuclear uptake of 5-TAMRA-labelled peptide, confocal microscopy (fixed and live cell imaging); format: cell-based, human
Experimental: The peptide was synthesised with the fluorescent dye 5-TAMRA (5-carboxytetramethyl-rhodamine) covalently bound at its amino-terminus. Since under some circumstances the fixation of cells prior to imaging may introduce artefacts, experiments were performed to detect the localisation of the peptide both with and without fixation of the cells. […] At the indicated time points, cells were washed three times with PBS, fixed with 4% paraformaldehyde for 15 min, washed three times and mounted on slides using ProLong Gold Antifade Reagent containing the nuclear stain DAPI (Life Technologies). Confocal fluorescence images were captured with a Leica TCS SP5 confocal laser scanning microscope (Leica Microsystems, Wetzlar, Germany). Live cell imaging (FIG. 8b): HCC1806 cells were plated in an 8-well chamber slide (Nunc Lab-Tek, Sigma Aldrich); 0.1 mg/mL Hoechst nuclear stain (Life Technologies) was added to the cells for 15 mins and imaged (0 min time point) using Leica TCS SP5 confocal microscope. […] Images were taken at the times indicated.

[8] = tested on: HCC1806 breast cancer cells; assay: 14-day colony formation or clonogenic survival assay; format: cell-based, human; details: veliparib 5 μM
Experimental: HCC1806 cells (500 cells/well) were plated in 6-well plates for 24 h prior to being treated with or without 5 μM of PARPi (veliparib) for a further 24 h. […] Colonies were washed with PBS and stained using 0.5% Crystal Violet (Sigma Aldrich) in 20% methanol for 30 min prior to rinsing with water. Colonies, defined as clusters of at least 30 cells, were imaged and counted with an AID vSpot Spectrum imager (AutoImmun Diagnostika GmbH, Strassberg, Germany).
The 14-day colony formation or clonogenic survival assay measures the ability of cells to survive 2 days of chemotherapy-induced DNA damage, and form colonies of at least 30 cells over the next 12 days. […] The purpose was to find conditions under which the cells become more sensitive to this low dose of chemotherapy.

[9] = target: T1, IGFBP-3 complexes with NONO (NONO/SFPQ) in MDA-MB-468 cells (Homo sapiens, UniProt Q15233); assay: Co-immunoprecipitation with IGFBP-3-Fab beads and western blotting, MDA-MB-468 cells; format: cell-based; details: 24 h preincubation with veliparib 20 μM or olaparib 10 μM prior to 20 μM etoposide
T1 construct: endogenous in cells; host or cells: MDA-MB-468; HCC1806
T1 sequence (Q15233 1-471): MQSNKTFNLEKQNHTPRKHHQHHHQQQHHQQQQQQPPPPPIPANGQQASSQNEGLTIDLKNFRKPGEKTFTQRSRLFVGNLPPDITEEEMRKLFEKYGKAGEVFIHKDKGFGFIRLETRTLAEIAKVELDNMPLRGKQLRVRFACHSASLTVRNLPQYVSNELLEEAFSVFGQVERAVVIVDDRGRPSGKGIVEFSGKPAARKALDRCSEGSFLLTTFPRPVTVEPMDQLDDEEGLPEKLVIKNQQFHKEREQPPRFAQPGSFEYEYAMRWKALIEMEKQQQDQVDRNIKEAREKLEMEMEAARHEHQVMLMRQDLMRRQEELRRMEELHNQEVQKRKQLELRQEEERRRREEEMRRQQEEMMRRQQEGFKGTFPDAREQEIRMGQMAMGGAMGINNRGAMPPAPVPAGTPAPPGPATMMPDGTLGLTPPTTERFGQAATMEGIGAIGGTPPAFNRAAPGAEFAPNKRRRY
T1 sequence (P23246 1-707 partner): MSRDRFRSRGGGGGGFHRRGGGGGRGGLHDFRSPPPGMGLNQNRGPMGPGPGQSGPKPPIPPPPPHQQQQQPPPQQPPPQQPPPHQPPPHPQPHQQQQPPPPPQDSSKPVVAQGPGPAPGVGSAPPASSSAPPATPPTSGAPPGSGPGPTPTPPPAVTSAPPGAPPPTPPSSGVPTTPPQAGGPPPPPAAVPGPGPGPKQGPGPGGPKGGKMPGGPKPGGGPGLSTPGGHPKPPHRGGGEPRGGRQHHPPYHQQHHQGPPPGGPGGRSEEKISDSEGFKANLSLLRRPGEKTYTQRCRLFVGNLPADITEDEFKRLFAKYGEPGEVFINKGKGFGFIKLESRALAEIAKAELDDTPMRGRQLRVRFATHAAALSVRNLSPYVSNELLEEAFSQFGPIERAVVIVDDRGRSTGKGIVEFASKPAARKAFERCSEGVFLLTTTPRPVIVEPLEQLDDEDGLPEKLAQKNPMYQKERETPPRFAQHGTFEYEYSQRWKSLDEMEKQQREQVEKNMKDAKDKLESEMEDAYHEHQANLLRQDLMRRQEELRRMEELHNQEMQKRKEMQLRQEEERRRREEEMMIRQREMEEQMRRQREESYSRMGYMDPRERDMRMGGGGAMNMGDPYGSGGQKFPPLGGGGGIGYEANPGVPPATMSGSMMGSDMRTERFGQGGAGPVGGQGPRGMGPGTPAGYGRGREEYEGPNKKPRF
Experimental: as §3

[10] = tested on: γH2AX signal in HCC1806 cells; assay: γH2AX response to etoposide after peptide incubation (blot), HCC1806 cells; format: cell-based, human; details: 16 h incubation with peptide at 10 μM, 25 μM etoposide
Experimental: (§5) An elevated γH2AX signal is indicative of sustained DNA damage (i.e. inhibition of DNA repair) compared to the control cells. Peptide #66 was also evaluated in the presence of PARP inhibitors, veliparib (ABT-888) and olaparib (Lynparza). In FIG. 5e and FIG. 5f, the γH2AX signal in the absence of peptide #66 is expressed as 100%, and bars represent the ratio of γH2AX signal in the presence of the peptide, to that in its absence.

[11] = tested on: γH2AX signal in MDA-MB-468 cells; assay: γH2AX response to etoposide after peptide incubation (blot), MDA-MB-468 cells; format: cell-based, human; details: 16 h incubation with peptide at 10 μM, 25 μM etoposide
Experimental: as §5

[12] = 20 μM veliparib or 10 μM olaparib 24 h, then 20 μM etoposide 2 h
[13] = 24 h preincubation with 20 μM veliparib, 2 h after 20 μM etoposide

COc1cc([C@@H]2c3cc4c(cc3[C@@H](O[C@@H]3O[C@@H]5CO[C@@H](C)O[C@H]5[C@H](O)[C@H]3O)[C@H]3COC(=O)[C@H]23)OCO4)cc(OC)c1O [etoposide]
Time of peak interaction between IGFBP-3 and NONO (PLA) ([1]; 20 μM etoposide, 0 to 4 h): ~2 h | Activity in direct DNA end-joining assay ([2]; 20 μM etoposide 2 h, nuclear extracts (FIG. 4e)): increased activity | Time of peak interaction between IGFBP-3 and NONO (PLA) ([3]; 20 μM etoposide, 0 to 4 h): ~2 h

O=C(c1cc(Cc2n[nH]c(=O)c3ccccc23)ccc1F)N1CCN(C(=O)C2CC2)CC1 [olaparib]
Effect on loss of γH2AX signal over 4 h recovery (DSB repair) [4]: significantly prevented the loss of γH2AX signal | Inhibition of end joining activity [2, 12]: approximately 50% | Effect on loss of γH2AX signal over 4 h recovery (DSB repair) [5]: significantly prevented the loss of γH2AX signal | Inhibition of end joining activity [6, 12]: approximately 50%

CC(C)C[C@H](NC(=O)[C@H](Cc1c[nH]cn1)NC(=O)c1ccc2c(c1)C(=O)OC21c2ccc(N(C)C)cc2Oc2cc(N(C)C)ccc21)C(=O)N[C@@H](CCCCN)C(=O)N[C@@H](Cc1ccccc1)C(=O)N[C@@H](CC(C)C)C(=O)N[C@@H](CC(N)=O)C(=O)N[C@H](C(=O)N[C@@H](CC(C)C)C(=O)N[C@@H](CO)C(=O)N1CCC[C@H]1C(=O)N[C@@H](CCCNC(=N)N)C(=O)NCC(=O)O)C(C)C [peptide #66 labelled with 5-TAMRA] (5TAMRA-HLKFLNVLSPRG-OH)
Time of peak colocalization of labelled peptide and nuclei ([7]; fixed cell imaging, or 10 μM labelled peptide): 30 min | Association of labelled peptide with cell nuclei ([7]; live cell imaging, 2.5 μM or 10 μM labelled peptide): associated with cell nuclei at 40 and 60 min, and even more so after 90 min

C[C@]1(c2nc3c(C(N)=O)cccc3[nH]2)CCCN1 [veliparib]
Effect on increase in IGFBP-3-NONO complexes (PLA) [1, 13]: abolished | Effect on loss of γH2AX signal over 4 h recovery (DSB repair) [4]: significantly prevented the loss of γH2AX signal | inhibition at 20 µM ([2]; Homo sapiens, MDA-MB-468): ~50% | Effect on increase in IGFBP-3-NONO complexes (PLA) [3, 13]: abolished | Inhibition of cell survival (colony formation) ([8]; cells exposed to 100 nM etoposide): about one-third | Inhibition of cell survival (colony formation) ([8]; in the absence of etoposide): about one-third | Effect on loss of γH2AX signal over 4 h recovery (DSB repair) [5]: significantly prevented the loss of γH2AX signal | inhibition at 20 µM ([6]; Homo sapiens, HCC1806): ~50% | Effect on IGFBP-3 complexes with NONO (immunoblotting after coIP) [9]: abolished

HLKFLNVLSPRG [Peptide #66]
Nuclear uptake of peptide ([7]; 5-TAMRA-labelled peptide, fixed and live cell imaging): rapid nuclear uptake

MEDTLNHLKFLN [compound 64]
γH2AX signal (sustained DNA damage) compared to no peptide [10]: low γH2AX signal | γH2AX signal (sustained DNA damage) compared to no peptide [11]: low γH2AX signal

TLNHLKFLNVLS [compound 65]
γH2AX signal (sustained DNA damage) compared to no peptide [10]: sustained γH2AX signal | γH2AX signal (sustained DNA damage) compared to no peptide [11]: sustained γH2AX signal
